Laboratory results from the NIST ThermoML archive (doi:10.1021/je4002009).

Test: mn = molality of the nth substance listed, in mol/kg
Settings: 101 kPa, Liquid; for viscosity: Capillary tube (Ostwald / Ubbelohde) method

O=C1CCC[NH+]1C1CCCCC1.O=S(=O)([O-])c1ccccc1 [1-cyclohexyl-2-oxopyrrolidin-1-ium benzenesulfonate] + O
Settings	mass density, 298.15 K [kg/m3]	mass density, 303.15 K [kg/m3]	mass density, 308.15 K [kg/m3]	viscosity, 298.15 K [mPa·s]	viscosity, 303.15 K [mPa·s]	viscosity, 308.15 K [mPa·s]
m1 = 0.0509	999.45	997.89	995.97	0.9377	0.8235	0.7406
m1 = 0.1005	1002.85	1001.35	999.03	0.9703	0.8645	0.7786
m1 = 0.1478	1005.4	1003.96	1001.85	1.01	0.8892	0.8095
m1 = 0.1987	1007.93	1006.42	1004.55	1.057	0.9268	0.8407
m1 = 0.2532	1010.59	1009.02	1007.24	1.11	0.9692	0.8758
m1 = 0.3009	1013.05	1011.32	1009.49	1.153	1.009	0.9088
m1 = 0.3497	1015.5	1013.84	1011.74	1.199	1.051	0.9404
m1 = 0.4013	1018.26	1016.55	1014.3	1.247	1.097	0.9772
m1 = 0.4514	1021.07	1019.24	1016.92	1.292	1.141	1.013
m1 = 0.5008	1023.74	1022.03	1019.52	1.337	1.181	1.046
m1 = 0.5492	1026.44	1024.55	1022.06	1.383	1.224	1.083
m1 = 0.6024	1029.39	1027.42	1024.91	1.432	1.268	1.123
m1 = 0.6506	1031.86	1029.91	1027.47	1.479	1.309	1.163
m1 = 0.7603	1037.45	1035.1	1032.83	1.588	1.405	1.249
m1 = 0.7986	1039.18	1036.89	1034.62	1.631	1.442	1.283
m1 = 0.9023	1043.64	1041.09	1038.92	1.736	1.535	1.373
m1 = 0.9974	1047.35	1044.52	1042.51	1.838	1.623	1.448
m1 = 1.199	1054.63	1052.23	1049.68	2.08	1.81	1.617

Cc1ccc(S(=O)(=O)O)cc1.O=C1CCCN1C1CCCCC1 [1-cyclohexyl-2-pyrrolidinone 4-methylbenzenesulfonate] + O
Settings	mass density, 298.15 K [kg/m3]	mass density, 303.15 K [kg/m3]	mass density, 308.15 K [kg/m3]	viscosity, 298.15 K [mPa·s]	viscosity, 303.15 K [mPa·s]	viscosity, 308.15 K [mPa·s]
m1 = 0.0502	1000.25	998.76	997.02	0.9563	0.8427	0.7524
m1 = 0.1025	1003.22	1001.6	999.85	0.9991	0.8853	0.7957
m1 = 0.1513	1005.86	1004.3	1002.49	1.035	0.9171	0.8304
m1 = 0.1991	1008.58	1006.95	1005.1	1.082	0.9514	0.8636
m1 = 0.2492	1011.41	1009.76	1007.84	1.134	0.9897	0.8957
m1 = 0.3015	1014.32	1012.57	1010.6	1.186	1.036	0.9333
m1 = 0.3524	1017.03	1015.23	1013.12	1.24	1.08	0.9639
m1 = 0.4007	1019.46	1017.48	1015.41	1.289	1.123	0.9982
m1 = 0.4491	1021.74	1019.79	1017.58	1.337	1.165	1.029
m1 = 0.4976	1023.93	1021.92	1019.7	1.383	1.207	1.066
m1 = 0.5503	1026.3	1024.26	1021.89	1.435	1.254	1.104
m1 = 0.6019	1028.47	1026.37	1023.96	1.485	1.3	1.145
m1 = 0.6492	1030.43	1028.29	1025.85	1.537	1.344	1.184
m1 = 0.7521	1034.7	1032.51	1030.01	1.648	1.44	1.272
m1 = 0.8074	1037	1034.74	1032.32	1.715	1.497	1.323
m1 = 0.9012	1040.82	1038.55	1036.16	1.829	1.596	1.412
m1 = 1.002	1044.83	1042.52	1040.19	1.966	1.7	1.506
m1 = 1.199	1051.36	1048.95	1046.4	2.233	1.907	1.688
